Measured values: the SangsterLogP compilation
Residues, ends and D or L forms follow the SMILES beside them. *: point of attachment. NHtBu = CC(C)(C)N*

Key:
[1] = not given; remark: listed apart in the source
[2] = method code SF, from DOI: 10.1021/jm5019252, PMID: 25906180; settings: pH 7.4
[3] = not given; remark: listed apart in the source
[4] = not given; remark: listed apart in the source
[5] = method code SF-AS, from PMID: 5136171
[6] = method code SF, from DOI: 10.1097/00004424-199009001-00048; settings: pH 7.4
[7] = not given; remark: listed apart in the source
[8] = method code SF-RC, from DOI: 10.1016/s0969-8043(00)00269-4, PMID: 11200881; settings: pH 7.4
[9] = not given; remark: listed apart in the source
[10] = not given; remark: listed apart in the source
[11] = method code SF-AS, from DOI: 10.1248/cpb.26.2832
[12] = method code SF-AS, from DOI: 10.1021/jm00085a014, PMID: 1560439; settings: pH 7.4
[13] = method code SF-RC, from DOI: 10.1023/a:1015846100305, PMID: 1788157; settings: pH 7.3
[14] = method code SF-AS, from DOI: 10.1135/cccc19881862
[15] = method code SF-AS, from DOI: 10.1016/j.ejmech.2015.02.036, PMID: 25728022; settings: pH 7.4
[16] = not given; remark: listed apart in the source
[17] = not given; remark: listed apart in the source
[18] = not given; remark: listed apart in the source
[19] = not given; remark: listed apart in the source
[20] = method code SF-AS, from DOI: 10.1039/p29900001191; settings: pH 12.0

Compound: CCC(=O)OC(C(=O)NC12CC3CC(CC(C3)C1)C2)c1ccccc1 (stereo not drawn)
- logP: 3.72

Compound: CCOC(=O)C1=C(C)NC(C)=C(C(=O)OC)C1c1cccc([N+](=O)[O-])c1 (stereo not drawn)
- logP [1]: 2.88

Compound: CC(=O)C(C(=O)ON=C(C)C12CC3CC(CC(C3)C1)C2)c1ccccc1 (stereo not drawn)
- logP: 4.64

Compound: COC(=O)c1cc(OC(=O)N(c2ccccc2)c2ccccc2)ccc1O
- logD [2]: 4.46

Compound: CCCCCCCCCCCCCCCCOC(=O)N(C)SN(C)C(=O)Oc1ccc2c(c1)OCO2
- logP [3]: 10.5

Compound: CCCCCC(=O)OC1CC(n2cc(C=CBr)c(=O)[nH]c2=O)OC1COP1(=O)OCc2cccc(C)c2O1 (stereo not drawn)
- logP [4]: 2.6

Compound: CCOC(=O)c1cnc2cc(OCCOC)c(OCC(C)C)cc2c1O
- logP [5]: 1.84

Compound: CN(C(=O)Oc1ccc(O)c(C(=O)NCc2ccccc2)c1)c1ccccc1
- logD [2]: 4.19

Compound: COCC(=O)Nc1c(I)c(C(=O)NCC(O)CO)c(I)c(C(=O)N(C)CC(O)CO)c1I (stereo not drawn)
- logD [6]: -2.05

Compound: CCCC(c1c(O)c2ccccc2oc1=O)c1c(O)c2ccccc2oc1=O
- logP [7]: 2.31

Compound: COc1ccc(C2CNC(=O)C2)cc1OC1CCCC1 (stereo not drawn)
- logD [8]: 2.17

Compound: CCOC(=O)C1=C(C)NC(C)=C(C(=O)OC)C1c1cccc(Cl)c1Cl (stereo not drawn)
- logP [1]: 3.65

Compound: O=C(O)c1[nH]c2cc(Cl)cc(Cl)c2c1CN1CC(=O)N(c2ccccc2OCCF)C1=O
- logP [9]: 1.51

Compound: Cn1c(CCC(=O)N2CCC[C@H]2C(=O)Nc2ccccc2-c2ccccc2)nc2ccccc21
- logP [10]: 3.79

Compound: CC(=O)OCC(=O)[C@@]1(O)CC[C@H]2[C@@H]3CCC4=CC(=O)CC[C@]4(C)[C@H]3C(=O)C[C@@]21C
- logP [11]: 2.1

Compound: CCC(=O)n1c(C(=O)c2ccc(-n3ccnc3C)cc2)c(CC)[nH]c1=O
- logD [12]: 1.72

Compound: CC(=O)NC(C)C(=O)N1CCCC1C(=O)NC(C)C(=O)NC(C)(C)C (stereo not drawn) (Ac-Ala-Pro-Ala-NHtBu; configuration not given here)
- logD [13]: -0.39

Compound: CCc1[nH]c(=O)n(C(=O)c2ccccc2)c1C(=O)c1ccc(-n2ccnc2C)cc1
- logD [12]: 1.96

Compound: CC(CC(=O)c1ccc(-c2ccc(-c3ccccc3)cc2)cc1)C(=O)O (stereo not drawn)
- logD ([14]; pH 3.5): 3.4

Compound: CCCCOc1cc2c(O)c(C(=O)OCC)cnc2cc1OCCOC
- logP [5]: 1.72

Compound: CC(=O)NC(C)C(=O)NC(Cc1c[nH]cn1)C(=O)NC(C)C(=O)NC(C)(C)C (stereo not drawn) (Ac-Ala-His-Ala-NHtBu; configuration not given here)
- logD [13]: -0.48

Compound: CC(CC(=O)O)CC(=O)c1ccc(-c2ccc(-c3ccccc3)cc2)cc1 (stereo not drawn)
- logD ([14]; pH 3.5): 3.82

Compound: CCCCn1c(C)nc2cc(Nc3nc(N4CCCC4)nc4[nH]cnc34)ccc21
- logD [15]: 1.36

Compound: CN(C(=O)Oc1ccc(O)c(C(=O)NCc2cccnc2)c1)c1ccccc1
- logD [2]: 2.95

Compound: CCC1ON=C(C)C1N=C1C=C(OC)C(=O)c2ccccc21 (stereo not drawn)
- logP [16]: 2.43

Compound: COc1ccccc1C(=O)N1CCCN(c2nc3ccc(Cl)cc3s2)CC1
- logP [10]: 4.98

Compound: NS(=O)(=O)c1cc2c(cc1Cl)N=C(CSCc1ccccc1)NS2(=O)=O
- logP [17]: 1.73

Compound: CCCc1onc(C)c1N=C1C=C(O)C(=O)c2ccccc21
- logP [16]: 2.52

Compound: O=c1oc2ccccc2c(O)c1Cc1c(O)c2ccccc2oc1=O
- logP [7]: 1.83

Compound: CC(CC(=O)c1ccc(-c2ccc(-c3ccc(F)cc3F)cc2)cc1)C(=O)O (stereo not drawn)
- logD ([14]; pH 3.5): 3.78

Compound: O=C1CN=C(c2ccc(Cl)cc2)c2cc(Br)ccc2N1
- logP [18]: 3.78

Compound: Cc1cccc2c1OP(=O)(OCC1OC(n3cc(C=CBr)c(=O)[nH]c3=O)CC1OC(=O)C(C)(C)C)OC2 (stereo not drawn)
- logP [4]: 3

Compound: CCCCCCCCOC(=O)N(C)SN(C)C(=O)Oc1ccc2c(c1)OCO2
- logP [3]: 4.67

Compound: CCc1onc(C)c1N=C1C=C(O)C(=O)c2ccccc21
- logP [16]: 2

Compound: COc1nc(C)ncc1OCC1(c2cccc(F)c2)CC1C(=O)Nc1ccc(F)cn1 (stereo not drawn)
- logP [10]: 3.65

Compound: O=C(O)c1[nH]c2cc(Cl)cc(Cl)c2c1CN1CC(=O)N(c2ccc(OCCF)cc2)C1=O
- logP [9]: 2.07

Compound: CCCCOc1ccc(OCCCN2CCOCC2)cc1
- logP [17]: 3.56

Compound: C=CCn1c(C)nc2cc(Nc3nc(N4CCCC4)nc4[nH]cnc34)ccc21
- logD [15]: 2.53

Compound: CCCCn1c(C)nc2cc(Nc3nc(Cl)nc4[nH]cnc34)ccc21
- logD [15]: 1.28

Compound: COc1ccc(CCN2CCC(Nc3nc4ccccc4n3Cc3ccc(F)cc3)CC2)cc1
- logP [17]: 5.7

Compound: CCc1[nH]c(=O)[nH]c1C(=O)c1ccc(-n2ccnc2C)cc1
- logD [12]: 0.85

Compound: CNC1CCC(c2ccc(Cl)c(Cl)c2)c2ccccc21 (stereo not drawn)
- logP [17]: 4.3

Compound: CC(=O)OC(C(=O)ON=C1C2CC3CC(C2)CC1C3)c1ccccc1 (stereo not drawn)
- logP: 3.28

Compound: CCc1[nH]c(=O)n(C(C)=O)c1C(=O)c1ccc(-n2ccnc2C)cc1
- logD [12]: 1.42

Compound: O=C(O)C(OCc1ccc(Cl)cc1)c1ccccc1 (stereo not drawn)
- logD ([14]; pH 3.4): 2.6

Compound: CCCOc1cc2c(O)c(C(=O)OCC)cnc2cc1OCCOC
- logP [5]: 1.7

Compound: O=C1c2c(O)cccc2C(C(=O)Cc2ccc3ccccc3c2)c2cccc(O)c21
- logP [19]: 4.71

Compound: CCCCCCCCCCCCOC(=O)N(C)SN(C)C(=O)Oc1ccc2c(c1)OCO2
- logP [3]: 7.39

Compound: CCOC(=O)c1cnc2cc(OCCOC)c(OC(C)C)cc2c1O
- logP [5]: 1.86

Compound: COc1ccc(N2C(=O)CN(Cc3c(C(=O)O)[nH]c4cc(Cl)cc(Cl)c34)C2=O)cc1
- logP [9]: 2.26

Compound: CC1=C(C(=O)OC(C)C)C(c2cccc([N+](=O)[O-])c2)C(C(=O)OC2CN(C(c3ccccc3)c3ccccc3)C2)=C(N)N1 (stereo not drawn)
- logP [1]: 5.18

Compound: CC(c1c(O)c2ccccc2oc1=O)c1c(O)c2ccccc2oc1=O
- logP [7]: 0.43

Compound: C=CCn1c(C)nc2cc(Nc3nc(N4CCCCC4)nc4[nH]cnc34)ccc21
- logD [15]: 1.55

Compound: CC(=O)OC(C(=O)NC12CC3CC(CC(C3)C1)C2)c1ccccc1 (stereo not drawn)
- logP: 3.21

Compound: CCc1onc(C)c1N=C1C=C(Nc2c(C)noc2CC)C(=O)c2ccccc21
- logP [16]: 2.71

Compound: O=C(NCCO)c1c(I)c(C(=O)NCCO)c(I)c(N(CC(O)CO)C(=O)C(O)CO)c1I (stereo not drawn)
- logD [6]: -2.64

Compound: CC(=O)N[C@@H](C)C(=O)N[C@@H](Cc1ccccc1)C(=O)N[C@@H](C)C(=O)NC(C)(C)C (Ac-Ala-Phe-Ala-NHtBu)
- logD [13]: 1.01

Compound: CN1CCc2cc(Cl)c(O)cc2[C@@H](c2ccccc2)C1
- logD [8]: 2.87

Compound: NC(=O)c1cc(-c2ccccc2)nnc1NCCN1CCOCC1
- logD [20]: 1.86

Compound: CCC(=O)OC1CC(n2cc(C=CBr)c(=O)[nH]c2=O)OC1COP1(=O)OCc2cccc(C)c2O1 (stereo not drawn)
- logP [4]: 2.3

Compound: CCCCCCCCCC(=O)OC1CC(n2cc(C=CBr)c(=O)[nH]c2=O)OC1COP1(=O)OCc2cccc(C)c2O1 (stereo not drawn)
- logP [4]: 2.8

Compound: Cc1cc(-c2ccccc2)nnc1NCCN1CCOCC1
- logD [20]: 2.03

Compound: O=C1c2c(O)cccc2C(C(=O)Cc2cccc3ccccc23)c2cccc(O)c21
- logP [19]: 4.61

Compound: CC(C)Oc1ccccc1OC(=O)N(C)SN(C)C(=O)Oc1ccc2c(c1)OCO2
- logP [3]: 2.7

Compound: COC(=O)C1=C(C)NC(C)=C(C(=O)OC/C=C/c2ccccc2)C1c1cccc([N+](=O)[O-])c1 (stereo not drawn)
- logP [1]: 4.26

Compound: C[C@H](O)C(=O)Nc1c(I)c(C(=O)NC(CO)CO)c(I)c(C(=O)NC(CO)CO)c1I
- logD [6]: -2.42

Compound: COc1ccc(CNC(=O)c2cc(-c3cncc(Cl)c3)cnc2-c2ccccn2)nc1OC
- logP [10]: 3.2

Compound: O=C1c2c(O)cccc2C(C(=O)C(c2ccccc2)c2ccccc2)c2cccc(O)c21
- logP [19]: 4.6

Compound: CCCCC(c1c(O)c2ccccc2oc1=O)c1c(O)c2ccccc2oc1=O
- logP [7]: 2.69

Compound: O=C1c2c(O)cccc2C(C(=O)CC2CCCCC2)c2cccc(O)c21
- logP [19]: 4.97

Compound: O=C(NCC(O)CO)c1c(I)c(N(CCO)C(=O)CO)c(I)c(N(CCO)C(=O)CO)c1I (stereo not drawn)
- logD [6]: -2.55

Compound: COC(=O)c1cc(OC(=O)N(C)c2ccccc2)ccc1O
- logD [2]: 3.13

Compound: CCOC(=O)c1ncn2c1CN(C)C(=O)c1cc(F)ccc1-2
- logD [8]: 1.26

Compound: O=C(O)c1[nH]c2cc(Cl)cc(Cl)c2c1CN1CC(=O)N(c2ccc(OCCF)c(Cl)c2)C1=O
- logP [9]: 2.53

Compound: c1ccc(-c2cc(-c3ccccc3)c(NCCN3CCOCC3)nn2)cc1
- logD [20]: 3.38

Compound: CN1CCc2c(cc(O)c(O)c2Cl)C(c2ccccc2)C1 (stereo not drawn)
- logD [8]: 1.4

Compound: CCc1cc(-c2ccccc2)nnc1NCCN1CCOCC1
- logD [20]: 2.53

Compound: CC(=O)N[C@@H](C)C(=O)N[C@@H](C)C(=O)N[C@@H](C)C(=O)NC(C)(C)C
- logD [13]: -0.51
